From patent US7056491B2, “Monoterpenes and sesquiterpenes as chemotherapeutic and radiation sensitizers and immunomodulators” (Wisconsin Alumni Research Foundation, priority 2000, dated 2006)

What was measured:
MO59K cells = assay: Clonogenic survival assay, POH with or without radiation, MO59K; assay type: cell-based, human; settings: for % SURVIVAL: MO59K
Description: Subconfluent cultures of human glioma cell line MO 59K were treated with 0.1–0.5 mM of POH for 72 hours and subsequently to increasing doses of radiation from 0.1 Gy to 8.5 Gy. Control cells were treated with the indicated doses of radiation alone. The cells were harvested and an optimum number of cells were allowed to grow for 14 days. The resulting colonies were stained and counted. Each graphed point represents mean values ± SE values of triplicate dishes.
(§1) Table 1 summarizing data from different cell lines treated with radiation, radiation plus POH, and POH alone. Subconfluent cultures of human glioma (T98G, M059K, U251), prostate (DU145, PC3), colon (DLD-1, HT29) and pancreatic (MIAPACA) cancer cell lines were treated with 0.1–0.5 mM of POH for 72 hours and subsequently to increasing doses of radiation from 0.1 Gy to 8.5 Gy. Control cells were treated with medium alone. The cells were harvested and an optimum number of cells were allowed to grow for 14 days. The resulting colonies were stained and counted. Each graphed point represents mean values ± SE values of triplicate dishes. Percentage survival was determined as the ratio of plating efficiencies for each irradiated group to that of the unirradiated control.

U251 cells = assay: Clonogenic survival assay, POH with or without radiation, U251; assay type: cell-based, human
Description: Subconfluent cultures of human glioma cell line U251 were treated with 0.1–0.5 mM of POH for 72 hours and subsequently to increasing doses of radiation from 0.1 Gy to 8.5 Gy. Control cells were treated with the indicated doses of radiation alone. The cells were harvested and an optimum number of cells were allowed to grow for 14 days. The resulting colonies were stained and counted. Each graphed point represents mean values ± SE values of triplicate dishes.
as §1

[1] = test system: MIAPACA pancreatic cancer cells; assay: Clonogenic survival assay, POH with or without radiation, MIAPACA; assay type: cell-based, human
Description: as §1

[2] = test system: glioma and prostate cancer cell lines; assay: Apoptosis by dual colored (PI and Annexin V) flow cytometry; assay type: cell-based, human; settings: 1 mM POH, 72 hours
Description: Glioma (T98G, U251, U353, U87 and MO59K) and prostate (DU145, PC3) cell lines were treated with or without 1 mM perillyl alcohol (POH) for 72 hours. The cells were harvested by trypsinization washed with PBS and subsequently staimed with antibody to annexin V conjugated to FITC and with PI (10 μg/ml). Viable (annexin V^−/PI^−) pre-apoptotic (annexin V^+/PI^−), apoptotic (annexin V^+/PI^+), and the residual damaged (annexin V^−/PI^+) cells were quantitated using this protocol.

Fas receptor = Fas receptor (CD95) staining by flow cytometry; assay type: cell-based, human; settings: 0.1 mM–1 mM POH 72 hours; same cell lines except U87MG
Description: The cells were harvested using cell dissociation solution, and the resulting cell pellet was washed and incubated with biotinylated anti-human antibody, which served as a control to eliminate non-specific binding. Following the primary antibody incubation the cells were washed and subsequently stained with secondary antibody conjugated to phycoerythrin (PE) (PharMingen) and antibody to CD95 directly conjugated to allophycocyanin (APC). The stained cells were analyzed using a Beckton-Dickinson FACStar plus and the results were acquired using CELLquest software.
Subconfluent cultures of the indicated glioma (T98G, U251, U353, U87MG), prostate (DU145, PC3), colon (DLD-1) and melanoma (Mel5) cell lines were treated with varying concentrations of POH (0.1 mM–1 mM POH) dissolved in medium for 72 hours. At the end of the incubation, the cells were harvested using cell dissociation solution, and the resulting cell pellet was washed and incubated with biotinylated anti-human antibody to the FasL (PharMingen) or with an isotype matched anti-human antibody, which served as a control to eliminate non-specific binding. […] The stained cells were analyzed using a Beckton-Dickinson FACStar plus and the results were acquired using CELLquest. […]

[3] = test system: Fas-sensitive Jurkat cell line; assay: Cell death of Jurkat cells incubated with POH-treated T98G; assay type: cell-based; settings: T98G treated 0.1 mM–0.5 mM 48 hours, then Jurkat 48 hours
Description: Referring to FIG. 27, subconfluent cells of T98G cells were treated with varying concentrations of perillyl alcohol (0.1 mM–0.5 mM) for 48 hours. At the end of the incubation the media was changed, cells from a Fas-sensitive Jurkat cell line were added to the plate, and the incubation was continued further for 48 hours. At the end of the incubation the target cells (Jurkat) were harvested, washed and the cell viability was assessed.

T98G cells [4] = assay: Clonogenic survival, POH pretreatment then cisplatin, T98G; assay type: cell-based, human; settings: POH 0.1 mM–0.5 mM 48 hours then cisplatin 0.05 uM–1 uM 48 hours
Description: (§2) Referring to FIG. 28, subconfluent cells of T98G cells were treated with varying concentrations of perillyl alcohol (0.1 mM–0.5 mM) for 48 hours and subsequently treated with the indicated dose of cisplatin (0.05 uM–1 uM) for 48 hours. At the end of the treatment, POH pretreated and untreated cells in the presence and absence of cisplatin, were harvested, washed with PBS, plated at the desired cell number and incubated for two weeks. The colonies were stained with crystal violet and quantitated. Survival was determined as the ratio of plating efficiencies for each irradiated group to that of the untreated control.

T98G cells [5] = assay: Clonogenic survival, POH pretreatment then doxorubicin, T98G; assay type: cell-based, human; settings: POH 0.1 mM–0.5 mM 48 hours then doxorubicin 0.01 uM–0.1 uM 48 hours
Description: as §2, with “29,” for “28,”, “doxorubicin (0.01 uM–0.1” for “cisplatin (0.05 uM–1”, “POH-pretreated” for “POH pretreated”, “doxorubicin,” for “cisplatin,”, “control. […] Doxorubicin at concentrations over 0.1 uM appeared to be toxic to the cells.” for “control.”

[6] = test system: 21–26 kD proteins, including small GTP-binding proteins; settings: dose dependent, distal to HMG-CoA reductase; cited from earlier work

## C=C(C)[C@@H]1CC=C(CO)CC1 [POH, Perillyl alcohol]
MO59K cells; M059K, cells not initially radiation resistant, 0.1–0.5 mM POH 72 h
  radiosensitization: lack of radiosensitization
MO59K cells; 0.1 mM POH 72 h, no radiation
  % SURVIVAL: 0.939 ± 0.005%
MO59K cells; 0.1 mM POH + 5.5 Gy
  % SURVIVAL: 0.061 ± 0.007%
MO59K cells; 0.3 mM POH 72 h, no radiation
  % SURVIVAL: 0.660 ± 0.020%
MO59K cells; 0.3 mM POH + 5.5 Gy
  % SURVIVAL: 0.080 ± 0.015%
MO59K cells; 0.5 mM POH 72 h, no radiation
  % SURVIVAL: 0.623 ± 0.009%
MO59K cells; 0.5 mM POH + 5.5 Gy
  % SURVIVAL: 0.056 ± 0.006%
U251 cells; 0.1 mM POH 72 h, no radiation
  % SURVIVAL: 1.066 ± 0.200%
U251 cells; 0.1 mM POH + 5.5 Gy
  % SURVIVAL: 0.253 ± 0.004%
U251 cells; 0.3 mM POH 72 h, no radiation
  % SURVIVAL: 0.397 ± 0.059%
U251 cells; 0.3 mM POH + 5.5 Gy
  % SURVIVAL: 0.046 ± 0.005%
U251 cells; 0.5 mM POH 72 h, no radiation
  % SURVIVAL: 0.257 ± 0.010%
U251 cells; 0.5 mM POH + 5.5 Gy
  % SURVIVAL: 0.019 ± 0.001%
[1]; 0.1 mM POH 72 h, no radiation
  % SURVIVAL: 1.503 ± 0.05%
[1]; 0.1 mM POH + 5.5 Gy
  % SURVIVAL: 0.154 ± 0.018%
[1]; 0.3 mM POH 72 h, no radiation
  % SURVIVAL: 0.750 ± 0.05%
[1]; 0.3 mM POH + 5.5 Gy
  % SURVIVAL: 0.059 ± 0.008%
[1]; 0.5 mM POH 72 h, no radiation
  % SURVIVAL: 0.450 ± 0.07%
[1]; 0.5 mM POH + 5.5 Gy
  % SURVIVAL: 0.015 ± 0.0027%
[2]
  early and late apoptotic cells (annexin V/PI): increase in the percentage of early as well as late apoptotic cells
Fas receptor
  levels of the Fas receptor: did not alter
[3]
  function of Fas Ligand on treated T98G towards Jurkat cells: brought about cell death
T98G cells [4]
  sensitization to cisplatin-induced cell death: dose-dependent sensitization
T98G cells [5]
  sensitization to doxorubicin-induced cell death: dose-dependent sensitization
[6]
  isoprenylation of 21–26 kD proteins: inhibit isoprenylation
